Experimental data: patent US20230234942A1, “COMPOUNDS FOR TREATING HUNTINGTON'S DISEASE” (PTC Therapeutics, Inc., priority 2020, published 2023)

System: Endogenous Huntingtin Protein
Assay: Endogenous Huntingtin Protein Assay (ELISA-based MSD electrochemiluminescence)
Format: cell-based
How it was run: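 Endogenous huntingtin measured on MSD plates coated with MW1 (polyglutamine-expanded) or MAB2166 capture antibody; lysates bound overnight at 4 °C. Signal developed with #56565 rabbit monoclonal and goat anti-rabbit SULFO-TAG (0.25 µg/mL, 1 h RT each), electrochemiluminescence read on SI 6000.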

[1] = Table 2, MSD plates coated with MW1 (expanded polyglutamine) or MAB2166 capture antibody, "inactive" = result above the detection limit of the assay

IC50 [1] [µM] | IC50 (Table 3, selected compounds from WO/2019/191229 A1, same MSD assay) [µM] | Compound
0.943 |  | COc1cc(-c2ccc(-c3cnc(N4CCN[C@@H](C(C)C)C4)nn3)c(O)c2)cc(C)n1 [Cpd 271, 5-(2-methoxy-6-methylpyridin-4-yl)-2-{3-[(3S)-3-(propan-2-yl)piperazin-1-yl]-1,2,4-triazin-6-yl}phenol]
0.0078 |  | CC(C)[C@H]1CN(c2ncc(-c3ncc(-c4cc(F)c5nn(C)cc5c4)cc3O)nn2)CCN1 [Cpd 157, 5-(7-fluoro-2-methyl-2H-indazol-5-yl)-2-{3-[(3S)-3-(propan-2-yl)piperazin-1-yl]-1,2,4-triazin-6-yl}pyridin-3-ol]
0.0146 |  | Cc1cn2nc(-c3ccc(-c4cnc(N5CCN(C)CC5)nn4)c(O)c3)cc(C)c2n1 [Cpd 104, 5-(2,8-dimethylimidazo[1,2-b]pyridazin-6-yl)-2-[3-(4-methylpiperazin-1-yl)-1,2,4-triazin-6-yl]phenol]
0.356 |  | CC(C)[C@H]1CN(c2ncc(-c3ccc(-c4ncc(C#N)s4)cc3O)nn2)CCN1 [Cpd 272, 2-(3-hydroxy-4-{3-[(3S)-3-(propan-2-yl)piperazin-1-yl]-1,2,4-triazin-6-yl}phenyl)-1,3-thiazole-5-carbonitrile]
0.0016 |  | Cn1cc2cc(-c3ccc(-c4cnc(N5CCNC(CO)C5)nn4)c(O)c3)cc(F)c2n1 (centres unmarked) [Cpd 65, 5-(7-fluoro-2-methyl-2H-indazol-5-yl)-2-{3-[3-(hydroxymethyl)piperazin-1-yl]-1,2,4-triazin-6-yl}phenol]
0.0731 |  | CC[C@@H]1CN(c2ncc(-c3ccc(-c4cc(OC)ncn4)cc3O)nn2)C[C@H](C)N1 [Cpd 228, 2-{3-[(3R,5S)-3-ethyl-5-methylpiperazin-1-yl]-1,2,4-triazin-6-yl}-5-(6-methoxypyrimidin-4-yl)phenol]
0.018 |  | Cc1cn2cc(-c3ccc(-c4cnc(N5CCN[C@@H](C(C)C)C5)nn4)c(O)c3)cc(C(F)(F)F)c2n1 [Cpd 139, 5-[2-methyl-8-(trilluoromethyl)imidazo[1,2-a]pyridin-6-yl]-2-{3-[(3S)-3-(propan-2-yl)piperazin-1-yl]-1,2,4-triazin-6-yl}phenol]
0.0907 |  | Cc1cc(-c2ccc(-c3cnc(N4CCNC(C(C)C)C4)nn3)c(O)c2)ncn1 (racemic) [Cpd 149, 5-(6-methylpyrimidin-4-yl)-2-{3-[(3RS)-3-(propan-2-yl)piperazin-1-yl]-1,2,4-triazin-6-yl}phenol]
0.171 |  | C[C@@H]1CN(c2ncc(-c3ccc(-c4ccn(C)n4)cc3O)nn2)C[C@H](C2CCC2)N1 [Cpd 240, 2-{3-[(3S,5R)-3-cyclobutyl-5-methylpiperazin-1-yl]-1,2,4-triazin-6-yl}-5-(1-methyl-1H-pyrazol-3-yl)phenol]
0.0105 |  | Cn1cc2cc(-c3ccc(-c4cnc(N5CCN6CCC[C@H]6C5)nn4)c(O)c3)cc(F)c2n1 [Cpd 99, 5-(7-fluoro-2-methyl-2H-indazol-5-yl)-2-{3-[(8aS)-hexahydropyrrolo[1,2-a]pyrazin-2(1H)-yl]-1,2,4-triazin-6-yl]phenol]
0.0079 |  | Cc1nc2c(C)cc(-c3ccc(-c4cnc(N5CCN[C@@H](C(C)C)C5)nn4)c(O)c3)nn2n1 [Cpd 92, 5-(2,8-dimethyl[1,2,4]triazolo[1,5-b]pyridazin-6-yl)-2-{3-[(3S)-3-(propan-2-yl)piperazin-1-yl]-1,2,4-triazin-6-yl}phenol]
0.0086 |  | Cc1cn2cc(-c3ccc(-c4cnc(N5CCN[C@@H](C(C)C)C5)nn4)c(O)c3)nc(C)c2n1 [Cpd 96, 5-(2,8-dimethylimidazo[1,2-a]pyrazin-6-yl)-2-{3-[(3S)-3-(propan-2-yl)piperazin-1-yl]-1,2,4-triazin-6-yl]phenol]
0.0219 |  | C[C@@H]1CN(c2ncc(-c3ccc(-c4cn[nH]c4)cc3O)nn2)C[C@H](C2CCC2)N1 [Cpd 231, 2-{3-[(3S,5R)-3-cyclobutyl-5-methylpiperazin-1-yl]-1,2,4-triazin-6-yl}-5-(1H-pyrazol-4-yl)phenol]
0.539 |  | Oc1cc(-c2cn[nH]c2)ccc1-c1cnc(N2CCNC(CC(F)(F)F)C2)nn1 (centres unmarked) [Cpd 146, 5-(1H-pyrazol-4-yl)-2-{3-[3-(2,2,2-trifluoroethyl)piperazin-1-yl]-1,2,4-triazin-6-yl}phenol]
0.01 |  | COc1cc(-c2ccc(-c3cnc(N4CCN[C@@H](C(C)C)C4)nn3)c(O)c2)nc(OC)n1 [Cpd 207, 5-(2,6-dimethoxypyrimidin-4-yl)-2-{3-[(3S)-3-(propan-2-yl)piperazin-1-yl]-1,2,4-triazin-6-yl}phenol]
 | 0.0331 | C[C@@H]1CN(c2ncc(-c3ccc(-c4ccc5nccn5n4)cc3O)nn2)C[C@H](C)N1 [WO/2019/191229 A1 Cpd 385, reference compound]
0.0111 |  | C[C@@H]1CN(c2ncc(-c3ccc(-c4ccc5nn(C)nc5n4)cc3O)nn2)C[C@H](C)N1 [Cpd 201, 2-{3-[rac-(3R,5S)-3,5-dimethylpiperazin-1-yl]-1,2,4-triazin-6-yl}-5-(2-methyl-2H-[1,2,3]triazolo[4,5-b]pyridin-5-yl)phenol]

IC50 [1] [µM] | IC50 (Table 3, selected compounds from WO/2019/191229 A1, same MSD assay) [µM] | Compound
0.401 |  | CN1CCN(c2ncc(-c3ccc(-c4cn[nH]c4)cc3O)nn2)CC1C1COC1 (centres unmarked) [Cpd 187, 2-{3-[4-methyl-3-(oxetan-3-yl)piperazin-1-yl]-1,2,4-triazin-6-yl}-5-(1H-pyrazol-4-yl)phenol]
0.0017 |  | Cn1nc2cc(-c3ccc(-c4cnc(N5CCN[C@@H](C6CC6)C5)nn4)c(O)c3)cnc2n1 [Cpd 168, 2-{3-[(3S)-3-cyclopropylpiperazin-1-yl]-1,2,4-triazin-6-yl}-5-(2-methyl-2H-[1,2,3]triazolo[4,5-b]pyridin-6-yl)phenol]
0.0551 |  | [2H]C([2H])([2H])n1cc(-c2ccc(-c3cnc(N4C[C@@H](C)N[C@@H](C5CCC5)C4)nn3)c(O)c2)cn1 [Cpd 238, 2-{3-[(3S,5R)-3-cyclobutyl-5-methylpiperazin-1-yl]-1,2,4-triazin-6-yl}-5-[l-(^2H3)methyl-1H-pyrazol-4-yl]phenol]
0.036 |  | CC(C)[C@H]1CN(c2ncc(-c3ccc(-c4cn5ccnc5cn4)cc3O)nn2)CCN1 [Cpd 113, 5-(imidazo[1,2-a]pyrazin-6-yl)-2-{3-[(3S)-3-(propan-2-yl)piperazin-1-yl]-1,2,4-triazin-6-yl}phenol]
0.461 |  | CC(C)[C@H]1CN(c2ncc(-c3ccc(-c4ncc(Cl)s4)cc3O)nn2)CCN1 [Cpd 189, 5-(5-chloro-1,3-thiazol-2-yl)-2-{3-[(3S)-3-(propan-2-yl)piperazin-1-yl]-1,2,4-triazin-6-yl}phenol]
0.0186 |  | COc1cc(-c2ccc(-c3cnc(N4CCN[C@@H](C5CC5)C4)nn3)c(O)c2)ccn1 [Cpd 251, 2-{3-[(3S)-3-cyclopropylpiperazin-1-yl]-1,2,4-triazin-6-yl]-5-(2-methoxypyridin-4-yl)phenol]
0.013 |  | [2H]C([2H])([2H])Oc1cc(-c2ccc(-c3cnc(N4CCN[C@@H](CC)C4)nn3)c(O)c2)ncn1 [Cpd 133, 2-{3-[(3S)-3-ethylpiperazin-1-yl]-1,2,4-triazin-6-yl}-5-{6-[(^2H3)methyloxy]pyrimidin-4-yl}phenol]
0.0041 |  | C[C@@H]1CN(c2ncc(-c3ccc(-c4ccc5nn(C)cc5c4)cc3O)nn2)C[C@H](C)N1 [Cpd 72, 2-{3-[(3R,5S)-3,5-dimethylpiperazin-1-yl]-1,2,4-triazin-6-yl]-5-(2-methyl-2H-indazol-5-yl)phenol]
0.004 |  | CC(C)(C)[C@H]1CN(c2ncc(-c3cc(F)c(-c4cn[nH]c4)cc3O)nn2)CCN1 [Cpd 164, 2-{3-[(3S)-3-tert-butylpiperazin-1-yl]-1,2,4-triazin-6-yl}-4-fluoro-5-(1H-pyrazol-4-yl)phenol]
0.417 |  | CC(C)[C@H]1CN(c2ncc(-c3ccc(-c4cn(C)nn4)cc3O)nn2)CCN1 [Cpd 260, 5-(1-methyl-1H-1,2,3-triazol-4-yl)-2-{3-[(3S)-3-(propan-2-yl)piperazin-1-yl]-1,2,4-triazin-6-yl}phenol]
0.338 |  | CC(C)[C@H]1CN(c2ncc(-c3ccc(-c4ncn(C)n4)cc3O)nn2)CCN1 [Cpd 259, 5-(1-methyl-1H-1,2,4-triazol-3-yl)-2-{3-[(3S)-3-(propan-2-yl)piperazin-1-yl]-1,2,4-triazin-6-yl}phenol]
0.607 |  | Cn1nnc2cnc(-c3ccc(-c4cnc(N5CCN[C@@H](C6CC6)C5)nn4)c(O)c3)cc21 [Cpd 174, 2-{3-[(3S)-3-cyclopropylpiperazin-1-yl]-1,2,4-triazin-6-yl}-5-(1-methyl-1H-[1,2,3]triazolo[4,5-c]pyridin-6-yl)phenol]
0.0037 |  | Cn1nc2ccc(-c3ccc(-c4cnc(N5CCN[C@@H](C6CC6)C5)nn4)c(O)c3)nc2n1 [Cpd 202, 2-{3-[(3S)-3-cyclopropylpiperazin-1-yl]-1,2,4-triazin-6-yl}-5-(2-methyl-2H-[1,2,3]triazolo[4,5-b]pyridin-5-yl)phenol]
0.755 |  | CN1CCn2ncc(-c3ccc(-c4cnc(N5CCN[C@@H](C6CC6)C5)nn4)c(O)c3)c21 [Cpd 275, 2-{3-[(3S)-3-cyclopropylpiperazin-1-yl]-1,2,4-triazin-6-yl}-5-(1-methyl-2,3-dihydro-IH-imidazo[1,2-b]pyrazol-7-yl)phenol]
0.111 |  | CC1CN(c2ncc(-c3ccc(-c4cn[nH]c4)cc3O)nn2)CCN1 (centres unmarked) [Cpd 42, 2-[3-(3-methylpiperazin-1-yl)-1,2,4-triazin-6-yl]-5-(1H-pyrazol-4-yl)phenol]
0.0048 |  | Cc1nnn2cc(-c3ccc(-c4cnc(N5CCN[C@@H](C6CC6)C5)nn4)c(O)c3)ccc12 [Cpd 193, 2-{3-[(3S)-3-cyclopropylpiperazin-1-yl]-1,2,4-triazin-6-yl}-5-(3-methyl[1,2,3]triazolo[1,5-a]pyridin-6-yl)phenol]
0.355 |  | Cn1nnc2ncc(-c3ccc(-c4cnc(N5CCN[C@@H](C6CC6)C5)nn4)c(O)c3)cc21 [Cpd 169, 2-{3-[(3S)-3-cyclopropylpiperazin-1-yl]-1,2,4-triazin-6-yl}-5-(1-methyl-1H-[1,2,3]triazolo[4,5-b]pyridin-6-yl)phenol]

Compound | IC50 [1] [µM] | IC50 (Table 3, selected compounds from WO/2019/191229 A1, same MSD assay) [µM]
4-fluoro-5-[1-(^2H3)methyl-1H-pyrazol-4-yl]-2-{3-[(3S)-3-(propan-2-yl)piperazin-1-yl]-1,2,4-triazin-6-yl}phenol [Cpd 152] | 0.015 | 
